Assay results reported in PMC6135396, “Repurposing antimalarial aminoquinolines and related compounds for treatment of retinal neovascularization” (PLoS ONE, 2018).
Like-named read-outs stand apart in the source and are kept apart here.

Legend:
APJ = molecular target: T1, APJ (Homo sapiens, UniProt P35414); assay: APJ cAMP assay (primary, cAMP HitHunter, CHO-K1-APJ cells); type: cell-based; parameters: host or cells: CHO-K1 (CHO-K1-APJ / CHO-k1-AGTRL1)
T1 sequence (P35414 1-380): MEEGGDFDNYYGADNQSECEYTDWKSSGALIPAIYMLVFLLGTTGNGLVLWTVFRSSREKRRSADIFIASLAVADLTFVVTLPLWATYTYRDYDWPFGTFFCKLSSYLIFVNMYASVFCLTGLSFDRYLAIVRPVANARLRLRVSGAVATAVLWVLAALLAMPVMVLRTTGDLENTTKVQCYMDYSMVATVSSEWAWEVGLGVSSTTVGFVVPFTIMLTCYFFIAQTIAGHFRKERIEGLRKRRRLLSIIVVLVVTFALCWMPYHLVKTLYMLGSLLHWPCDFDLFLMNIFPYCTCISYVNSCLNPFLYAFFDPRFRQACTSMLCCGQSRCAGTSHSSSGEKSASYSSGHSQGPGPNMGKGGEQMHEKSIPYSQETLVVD
Procedure: To identify small-molecule antagonists of the apelin receptor (APJ) we interrogated the SBP compound file of ~425,000 compounds using CHO-k1-AGTRL1 cells overexpressing human APJ and a competitive immunoassay of intracellular cAMP [59]. The compound file was screened at a concentration of 10 μM. For all 333 plates assayed, the average Z-factor = 0.68 and the average S/B = 8.2, indicating a robust assay performance. […] There were 2550 compounds that met this criterion, representing a hit rate of ~0.6%. […] Included in this hit set was a series of aminoquinolines, exemplified by compound 1 (Fig 1B). […] As part of an initial hit-validation strategy, these compounds and three other commercially available analogs were purchased for further testing. The purity and identify of all compounds were confirmed by NMR and LC-MS, and they were subsequently retested in a battery of cell-based assays of APJ function and counter screens. […] (Fig 1D).
PathHunter™ GPCR Arrestin and cAMP Hunter™ cell lines (DiscoveRx Corp., Fremont, CA) were used to assay G-protein-dependent signaling and β-arrestin recruitment to APJ. CHO-K1 cells stably expressing APJ (CHO-K1-APJ) or AT1 (CHO-K1-AT1) with β-arrestin/β-galactosidase enzyme fragment complementation constructs were maintained in HAM's F-12 medium (Hyclone, Logan, UT) supplemented with 10% FBS, 1X Penicillin-Streptomycin-Glutamine (Invitrogen; Carlsbad, CA), 300 μg/ml hygromycin (EMD Biosciences, San Diego, CA), and 800 μg/ml Geneticin (Cellgro, Manassas, VA). Primary Human Retinal Microvascular Endothelial Cells (HRECs) were purchased from Cell Systems (Kirkland, WA) and maintained in Complete Classic Medium with CultureBoost-R™ (Cell Systems). Parent CHO-K1 cells were obtained from ATCC and maintained in HAM’s F-12 medium supplemented with 10% FBS, and1X Penicillin-Streptomycin-Glutamine (Invitrogen; Carlsbad, CA). All cells were incubated at 37°C (5% CO2, 95% relative humidity) and maintained at less than 70% to 80% confluence (approximately 75,000 cells/cm^2). Cell heterologously expressing APJ or AT1 were not used after 10 passages. HRECs were not used in any experiments after five passages.
All reagents unless otherwise specified are components of the cAMP HitHunter (DiscoveRx) kit. Ligand Buffer + 60 μM Forskolin (Cayman Chemical, Ann Arbor, MI) was made fresh on the day of the experiment and used for the dilution of positive and negative controls as well as all peptides. CHO-K1-APJ cells were dispensed into a 1536-well tissue culture microplate (Corning, Corning, NY) using a Multidrop at a seeding density of 1,000 cells/well and returned to the incubator. The next day, the cell culture media was removed and replaced with 15 μl/well of assay buffer (1X HBSS, 10 mM HEPES) containing anti-cAMP antibody (DiscoveRx). […] Plates were incubated at room temperature in the dark for 3 hours prior to chemiluminescence detection on an EnVision (Perkin Elmer) using a counting time of 1 s/well.

[1] = Cytotoxicity, ATP-Lite, Fa2N-4 immortalized human hepatocytes; type: cell-based; conditions: Fa2N-4 immortalized human hepatocytes
Procedure: Fa2N-4 immortalized human hepatocytes (Xenotech) or HREC cells were grown to subconfluency in wells of a 96-well plate and exposed to different concentrations of compounds for 24 h after which the cells were washed and the media and compounds replaced. The cells were returned to the incubator for another 24 h. The extent of cell death (cell lysis) was determined by ATP-Lite reagent (Perkin-Elmer).

Plasma stability, mouse = type: in vitro ADME
[2] = Plasma-protein binding, mouse; type: in vitro ADME
PAMPA permeability = type: in vitro ADME
Plasma stability, human = type: in vitro ADME
[3] = Hepatic microsome stability, rat; type: in vitro ADME; conditions: liver microsomes, pH 7.4, single phase, read-out: Hepatic microsome stability T1/2
Procedure: Hepatic microsomes stability assays were performed as reported before. […] After preincubation at 37°C for 10 min, enzyme reactions were initiated by adding 120 μL of NADPH-generating system (2 mM NADP^+, 10 mM glucose-6-phosphate, 0.4 U/ml glucose-6-phosphate dehydrogenase, and 5 mM MgCl2) in the presence of 100 mM potassium phosphate buffer (pH 7.4). The final concentration of each model compound used was 1 μM. The microsomal concentrations used were 1.0 mg/mL. Compounds were incubated in microsomes for 0, 5, 15, 30 and 60 min. The reactions were stopped by the addition of ice cold ACN and the reaction mixtures were centrifuged at 10,000g for 10 min before the supernatant was removed for analysis.
Except for the primary assay in the HTS campaign, all experiments were repeated at least three times. Results are expressed as mean ± SEM. The Mann-Whitney test was used to determine statistical significance of the densitometry data of Western blot analysis. Unpaired two-tailed Student’s t-test was performed for the significance of the results of ELISA and in vitro tubule formation assay. ANOVA was used to determine the significance in vivo CNV models using the Tukey post-hoc test for multiple comparisons. […] T1/2 was calculated using the best fit curve resulting from non-linear (human) or linear (mouse and rat) regression analyses using Prism 7.

Compound: CCN(CC)Cc1cc(Nc2ccnc3cc(Cl)ccc23)ccc1O [AQ, amodiaquine]
- IC50 (APJ): 3.45 ± 0.028 µM
- Mode of APJ antagonism (APJ; Ap13 concentration response curves after pre-incubation with AQ, Schild-type analysis): non-competitive APJ antagonist
- IC50 at 48 h ([1]; ATP-lite assay, Fa2-N4 cells): > 50 µM
- CC50 at 48 h ([1]; Fa2N-4 cells, read-out: Cytotoxicity LC50): > 50 µM
- Plasma stability (Plasma stability, mouse): 36.1 % remaining at 3 hrs
- Plasma-protein binding ([2]; 1 μM): 81.9 % bound
- Plasma-protein binding ([2]; 10 μM): 70.8 % bound
- Papp (PAMPA permeability; Donor pH 5.0, Acceptor pH 7.4, read-out: PAMPA permeability Pe): 3 ×10⁻⁶ cm/s
- Papp (PAMPA permeability; Donor pH 6.2, Acceptor pH 7.4, read-out: PAMPA permeability Pe): 9.6 ×10⁻⁶ cm/s
- Papp (PAMPA permeability; pH 7.4, Donor pH 7.4, Acceptor pH 7.4, read-out: PAMPA permeability Pe): 54 ×10⁻⁶ cm/s
- Plasma stability (Plasma stability, human): 37.3 % remaining at 3 hrs
- half-life at 1 μM [3]: 38.9 min
